Source: EP1009418B1, “ROBINIA PSEUDOACACIA LECTIN AND ITS USES” (priority 1997, dated 1999)

Columns and labels:
[1] = tested on: small intestine, jejunum and ileum; test: Protection of rats from high-dose 5-FU by oral pre-dosing with A4 or B4 homotetramer lectin: gut dry weights and visual inspection; format: in vivo, Hooded Lister (Rowett Strain) rats
Procedure: (§1) Thirty five young male Hooded Lister (Rowett Strain) rats (19 days old weighing 30-40g) were housed individually in grid bottom cages. The animals were fed a high quality semi-synthetic diet containing 10% lactalbumin protein (Table 1).
(§2) Diet and water was freely available at all times except on day 19 when the amount of food offered was restricted to 10g/rat. At 19 days, rat weights were 100-104g.
(§3) Animals not pre-dosed with RPA were administered with 1 ml 0.9% saline by gavage.
(§4) 300mg of 5-fluorouracil was stirred in 14ml of distilled water. 1M NaOH was added slowly until the 5-FU had dissolved. The solution was made up to a final volume of 20 ml. The final pH of the solution was 8.3. A dose of 150 mg/kg body weight was administered to the animal by intraperitoneal injection. Immediately after the injection, the rats were offered 15g of the control diet.
Five groups, each consisting of 5 rats were fed on a standard diet containing lactalbumin (Table 1) and were fed on the following dietary regime (Table 4); Table 4.
One group of animals (Treatment 1) were fed standard diet throughout. The second group were gavaged daily with saline for three days and then injected with 5-FU at 150 mg/kg body weight (Treatment 2). The remaining two groups (Treatment 3 & 4) of animals were gavaged daily for three days with either A4 or B4 RPA homotetramer for three days and then injected with 150 mg/kg body weight 5-FU. After injection with 5-FU, Treatment groups 2-4 were returned to standard diet for four days ad lib. The animals were sacrificed 7 days after the start of the experiment, the carcass dissected and the small intestine, jejunum and ileum dry weights recorded.
Dry weights normalised to 100g dry body weight.

[2] = tested on: small intestine, jejunum and ileum; test: Protection of rats from high-dose 5-FU by oral pre-dosing with RPA: gut wet weights and visual inspection; format: in vivo, Hooded Lister (Rowett Strain) rats
Procedure: as §1, §2
Animals pre-dosed with RPA were given the equivalent of 25, 50 or 100 mg/kg body weight RPA (Table 2) in 0.9% saline by gavage. The animals were pre-dosed for three consecutive days prior to the 5-FU injection.
as §3, §4
Five groups, each consisting of 5 rats were fed on the standard diet containing lactalbumin (Table 1). One group of rats were fed 8 g per day of standard diet for three days and then injected with 5-FU at 150 mg/kg body weight (Table 2).
The rats were pair fed for the first three days and then fed ab libitum post 5-FU injection.
Three groups of animals were gavaged daily with 25, 50 or 100 mg/kg/day body weight Robinia pseudoacacia lectin (RPA) for three days and then injected with 150 mg/kg 5-FU on the following day. The remaining group of animals were pre-dosed with 100 mg/kg body weight RPA and then returned to lactalbumin containing diet without injection of 5-FU. After injection with 5-FU, the animals were returned to lactalbumin containing diet ad lib. The animals were sacrificed 7 days after the start of the experiment, the carcass dissected and the small intestine, jejunum and ileum wet weights recorded.

[3] = dry weight normalised to 100g dry body weight, saline gavage 3d, 5-FU 150 mg/kg, no lectin
[4] = wet weight, lactalbumin diet 3d, 5-FU 150 mg/kg i.p., no RPA

O=c1[nH]cc(F)c(=O)[nH]1 [5-FU, 5-fluorouracil]
tissue dry weight versus the untreated control ([1]; 5-FU 150 mg/kg (treatments 1 & 2)): significant reduction in tissue dry weight | Visual inspection of the small intestine, jejunum and ileum ([1]; 5-FU alone): extensively damaged mucosal | Ileum [1, 3]: 405 mg | Jejunum [1, 3]: 336 mg | Small intestine [1, 3]: 1789 mg | Visual inspection of the small intestine, jejunum and ileum ([2]; 5-FU alone (treatment 1)): no, or a very thin mucosal layer | Ileum [2, 4]: 1.0 g | Jejunum [2, 4]: 1.0 g | Small intestine [2, 4]: 5.62 g
